Patent US20240228469A1, “PCSK9 INHIBITORS AND METHODS OF USE THEREOF” (AstraZeneca AB, priority 2022, published 2024)

Legend:
[1] = target: T1, PCSK9 (Homo sapiens, UniProt Q8NBP7, G670E/V474I); assay: Assay 3 PCSK9 LDL-C uptake assay in HepG2 cells; type: cell-based; set-up: TEV site (C); His6 (C); host or cells: added to HepG2 (ATCC #HB-8065); settings: 125 nM PCSK9, pHrodo Red-LDL, read-out: Assay 3 LDL uptake potency
Source text: This assay measures for PCSK9 antagonist activity based on a test compound's capacity to restore LDL-C-uptake in HepG2 cells. The assay is based on exogenous PCSK9 and LDL-C complexed with a pH-sensitive dye. Outside the cells, at neutral pH, the pHrodo Red-LDL is dimly fluorescent but upon LDLR mediated endocytosis it fluoresces brightly. PCSK9 traffics the LDLR to intracellular degradation and reduces uptake of LDL-C. Inhibition of PCSK9 reduces LDLR degradation and the increased LDL-C uptake is quantified by fluorescence microscopy.
• Cell medium: MEM supplemented with 10% FBS, 1×NEAA and Sodium Pyruvate • Assay medium: OptiMem supplemented with penicillin/streptomycin • Cells: HepG2 (ATCC #HB-8065)
• 1. Cryopreserved HepG2 cells were thawed in assay medium and centrifuged for 5 min at 250 g. Supernatant was discarded and the cell pellet resuspended in cell medium and counted with a Nucleocounter. Cells were again centrifuged 5 min at 250 g and the pellet was resuspended to 500000 cells/mL in assay medium. • 2. 20 μL of above cell mix was dispensed into black μclear TC treated 384 well plates with Multidrop Combi and left at room temperature for 20 minutes. • 3. Plates were incubated at 37° C., 5% CO2 for 24 h
• 1. Test compounds were prepared in concentration response in DMSO with a half-log dilution factor in DMSO in Echo 384 LDV plates starting at 10 mM. • 2. 30 nL of above test compounds were dispensed with Echo 655 to cells for a top concentration of 10 μM • 3. 10 μL PCSK9 in assay medium was dispensed to cells with Multidrop Combi for 125 nM final concentration in the wells. • 4. Plates were incubated at 37° C., 5% CO2 for 24 h
• 1. 10 μL pHrodo Red-LDL in assay medium was dispensed to cells with Multidrop Combi for […] • 2. Plates were incubated at 37° C., 5% CO2 and imaged with the Incucyte S3 after 4 h and 24 h
Image data was processed using Incucyte 2021, a software to identify cells and red fluorescent intensity. Screener was used to further process data. Data was normalized as % effect of the signal between median values of the on-plate controls of DMSO and 100 nM Evolocumab according to the formula % effect=−100*(x−DMSO)/(Evolocumab−DMSO) where x equals the measured signal. Concentration response data of the normalized values were fitted using a four-parameter logistic fit.

[2] = target: T1, PCSK9; assay: biochemical
[3] = target: T2, potassium ion channel hERG (Homo sapiens, UniProt Q12809); assay: Assay 5 hERG assay (patch clamp, CHO cells over-expressing hERG); type: cell-based; settings: SyncroPatch 384PE, room temperature, geometric mean, read-out: Assay 5 (hERG Hu CHO if EPh CR-Syncro) GMean IC50
T2 construct: expressed in transfected cells; host or cells: Chinese hamster ovary K1 (CHO)
Summary of the method: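 hERG currents recorded by automated patch clamp at room temperature in CHO-K1 cells, 6-point cumulative concentrations. SyncroPatch runs used KF-based internal (pH 7.2) and NMDG-containing external solution (pH 7.4), 0.33% DMSO; QPatchII runs used 2% or 0.4% DMSO. Only wells meeting seal-resistance and current-size criteria kept.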

[4] = target: GSK3β (Glycogen synthase kinase-3 beta) (Homo sapiens, UniProt P49841); assay: Assay 6 GSK3β assay (ThermoFisher Z-Lyte FRET); type: biochemical; settings: ATP Conc: 10 μM, geometric mean; read-out: Assay 6 (GSK3β FRET-Z-Lyte Cr) GMean IC50
Summary of the method: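 Z-Lyte FRET: 0.22-0.92 ng kinase with 2 μM Ser/Thr 09 peptide in HEPES pH 7.5, MgCl2, EGTA, 60 min at room temperature, then 60 min development. Compounds in 1% DMSO, 10-point 3-fold series from 10 μM; sigmoidal dose-response fit.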

T2 sequence (Q12809 whole entry): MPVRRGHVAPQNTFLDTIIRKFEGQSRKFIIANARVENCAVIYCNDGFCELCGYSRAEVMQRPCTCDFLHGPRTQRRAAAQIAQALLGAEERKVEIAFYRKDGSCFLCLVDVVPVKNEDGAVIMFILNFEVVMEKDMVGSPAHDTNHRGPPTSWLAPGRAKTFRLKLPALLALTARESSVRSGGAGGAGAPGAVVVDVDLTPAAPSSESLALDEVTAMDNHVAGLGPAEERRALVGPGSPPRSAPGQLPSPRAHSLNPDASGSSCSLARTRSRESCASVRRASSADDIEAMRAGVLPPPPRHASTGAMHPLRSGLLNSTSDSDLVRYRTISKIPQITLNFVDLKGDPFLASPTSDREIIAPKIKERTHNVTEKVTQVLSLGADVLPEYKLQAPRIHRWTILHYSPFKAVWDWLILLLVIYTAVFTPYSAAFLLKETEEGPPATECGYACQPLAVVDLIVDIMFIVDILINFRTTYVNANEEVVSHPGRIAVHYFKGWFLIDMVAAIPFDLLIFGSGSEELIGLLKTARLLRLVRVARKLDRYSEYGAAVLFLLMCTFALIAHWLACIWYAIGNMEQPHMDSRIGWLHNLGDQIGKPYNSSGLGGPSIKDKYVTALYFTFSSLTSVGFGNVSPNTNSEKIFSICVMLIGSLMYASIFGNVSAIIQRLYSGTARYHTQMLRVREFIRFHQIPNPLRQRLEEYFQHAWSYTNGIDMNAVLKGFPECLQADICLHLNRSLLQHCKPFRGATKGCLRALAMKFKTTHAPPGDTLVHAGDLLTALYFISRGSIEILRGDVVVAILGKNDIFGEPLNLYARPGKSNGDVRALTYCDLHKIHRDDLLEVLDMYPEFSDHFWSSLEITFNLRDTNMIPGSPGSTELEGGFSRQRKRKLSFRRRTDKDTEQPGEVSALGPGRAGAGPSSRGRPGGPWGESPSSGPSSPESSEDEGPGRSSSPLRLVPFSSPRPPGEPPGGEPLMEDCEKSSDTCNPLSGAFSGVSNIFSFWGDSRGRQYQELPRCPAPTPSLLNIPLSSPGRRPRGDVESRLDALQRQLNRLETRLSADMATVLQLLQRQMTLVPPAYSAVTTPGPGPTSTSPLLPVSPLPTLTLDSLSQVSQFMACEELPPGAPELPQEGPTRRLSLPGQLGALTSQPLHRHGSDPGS
Chain of GSK3β (Glycogen synthase kinase-3 beta) (P49841 whole entry): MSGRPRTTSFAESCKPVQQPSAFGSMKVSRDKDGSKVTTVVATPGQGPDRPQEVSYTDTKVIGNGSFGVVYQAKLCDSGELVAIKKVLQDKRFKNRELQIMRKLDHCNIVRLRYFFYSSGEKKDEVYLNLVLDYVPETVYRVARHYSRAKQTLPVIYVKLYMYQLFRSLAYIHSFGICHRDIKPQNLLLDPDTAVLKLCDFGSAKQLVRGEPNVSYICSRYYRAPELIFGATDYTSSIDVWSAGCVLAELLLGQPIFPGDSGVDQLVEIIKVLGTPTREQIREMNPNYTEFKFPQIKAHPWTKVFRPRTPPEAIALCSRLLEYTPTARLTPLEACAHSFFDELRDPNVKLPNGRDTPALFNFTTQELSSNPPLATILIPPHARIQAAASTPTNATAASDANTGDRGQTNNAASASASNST
T1 sequence (Q8NBP7 with tags, fused parts or gaps V474I/G670E): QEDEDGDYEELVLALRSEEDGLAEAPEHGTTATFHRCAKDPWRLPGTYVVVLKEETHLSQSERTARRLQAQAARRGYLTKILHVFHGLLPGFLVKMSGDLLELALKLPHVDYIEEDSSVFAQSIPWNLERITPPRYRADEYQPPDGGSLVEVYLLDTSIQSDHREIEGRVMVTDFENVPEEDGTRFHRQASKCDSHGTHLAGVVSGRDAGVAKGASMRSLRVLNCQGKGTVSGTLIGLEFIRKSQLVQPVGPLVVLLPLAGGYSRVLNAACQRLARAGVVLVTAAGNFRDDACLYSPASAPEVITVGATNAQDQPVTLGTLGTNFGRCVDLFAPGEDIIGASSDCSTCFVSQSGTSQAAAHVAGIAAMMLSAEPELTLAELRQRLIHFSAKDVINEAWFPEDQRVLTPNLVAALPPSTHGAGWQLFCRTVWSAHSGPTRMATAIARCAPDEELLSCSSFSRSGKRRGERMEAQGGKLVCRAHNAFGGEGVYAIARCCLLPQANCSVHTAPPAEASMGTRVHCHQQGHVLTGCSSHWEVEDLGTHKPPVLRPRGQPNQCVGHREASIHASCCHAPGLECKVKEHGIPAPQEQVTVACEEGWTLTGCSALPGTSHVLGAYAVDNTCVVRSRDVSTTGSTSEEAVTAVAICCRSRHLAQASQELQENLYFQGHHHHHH

| SMILES | EC50 [1] [nM] | IC50 [2] [nM] | IC50 [3] [nM] | IC50 [4] [nM] |
| --- | --- | --- | --- | --- |
| Cc1cnc(N[C@H]2CC[C@H](Nc3ccc(-n4cccc(C)c4=O)cn3)C2)nn1 (racemic) [Example 173, rel-3-Methyl-6′-(((1 R,3R)-3-((6-methyl-1,2,4-triazin-3-yl)amino)cyclopentyl)amino)-2H-[1,3′-bipyridin]-2-one] | 100 | 4.2 | > 40100 | 1950 |
| COc1ccc(=O)n(-c2ccc(NCC(CCO)CNc3ncc(C)nn3)nc2)c1 (racemic) [Example 317, rac-6′-((4-Hydroxy-2-(((6-methyl-1,2,4-triazin-3-yl)amino)methyl)butyl)amino)-5-methoxy-2H-[1,3′-bipyridin]-2-one] | > 800 | 4430 | > 40000 |  |
| O=c1ccc(-c2c[nH]nn2)cn1-c1ccc(N[C@H]2CC[C@H](Nc3ncc(C4CC4)nn3)C2)nc1 [Example 122, 6′-(((1S,3S)-3-((6-Cyclopropyl-1,2,4-triazin-3-yl)amino)cyclopentyl)amino)-5-(1H-1,2,3-triazol-4-yl)-2H-[1,3′-bipyridin]-2-one] | 100 | 1.4 | > 40100 | 6170 |
| O=c1ccc(-c2cn[nH]c2)cn1-c1ccc(N[C@H]2CC[C@H](Nc3ncc(C4CC4)nn3)C2)nc1 [Example 123, 6′-(((1S,3S)-3-((6-Cyclopropyl-1,2,4-triazin-3-yl)amino)cyclopentyl)amino)-5-(1H-pyrazol-4-yl)-2H-[1,3′-bipyridin]-2-one] | 100 | 1.4 | > 40100 | 8840 |
| O=c1ccc(-c2nnn[nH]2)cn1-c1ccc(N[C@H]2CC[C@H](Nc3ncc(C4CC4)nn3)C2)nc1 [Example 124, 6′-(((1S,3S)-3-((6-Cyclopropyl-1,2,4-triazin-3-yl)amino)cyclopentyl)amino)-5-(1H-tetrazol-5-yl)-2H-[1,3′-bipyridin]-2-one] | 100 | 1 | > 40100 | 1070 |
| Cn1c(=O)n(-c2ccc(N[C@H]3CC[C@H](Nc4ncc(C5CC5)nn4)C3)nc2)c2cc(P(C)(C)=O)ccc21 [Example 125, 3-(6-(((1S,3S)-3-((6-Cyclopropyl-1,2,4-triazin-3-yl)amino)cyclopentyl)amino)pyridin-3-yl)-5-(dimethylphosphoryl)-1-methyl-1,3-dihydro-2H-benzo[d]imidazol-2-one] | 100 | 2.7 | > 40100 | > 10000 |
| Cc1ccc(=O)n(-c2ccc(N[C@H]3CC[C@H](Nc4ncc(C)nn4)C3)nc2)c1 [Example 130, 5-Methyl-6′-(((1S,3S)-3-((6-methyl-1,2,4-triazin-3-yl)amino)cyclopentyl)amino)-2H-[1,3′-bipyridin]-2-one] | 200 | 14 | > 40100 | 5700 |
| Cc1cnc(N[C@H]2CC[C@H](Nc3ccc(-n4cccc(C#N)c4=O)cn3)C2)nn1 [Example 136, 6′-(((1S,3S)-3-((6-Methyl-1,2,4-triazin-3-yl)amino)cyclopentyl)amino)-2-oxo-2H-[1,3′-bipyridine]-3-carbonitrile] | 200 | 3 | > 40100 | > 10000 |
| Cc1cnc(N[C@H]2CC[C@H](Nc3ccc(-n4cccc(F)c4=O)cn3)C2)nn1 [Example 137, 3-Fluoro-6′-(((1S,3S)-3-((6-methyl-1,2,4-triazin-3-yl)amino)cyclopentyl)amino)-2H-[1,3′-bipyridin]-2-one] | 700 | 10 | > 40100 | 3520 |
| Cc1cnc(N[C@H]2CC[C@H](Nc3ccc(-n4cccc(OC(F)(F)F)c4=O)cn3)C2)nn1 [Example 138, 6′-(((1S,3S)-3-((6-Methyl-1,2,4-triazin-3-yl)amino)cyclopentyl)amino)-3-(trifluoromethoxy)-2H-[1,3′-bipyridin]-2-one] | 200 | 4 | > 40100 | > 10000 |
| COc1cccn(-c2ccc(N[C@H]3CC[C@H](Nc4ncc(C(=O)NC5COC5)nn4)C3)nc2)c1=O [Example 153, 3-(((1S,3S)-3-((3-Methoxy-2-oxo-2H-[1,3′-bipyridin]-6′-yl)amino)cyclopentyl)amino)-N-(oxetan-3-yl)-1,2,4-triazine-6-carboxamide] | 100 | 3.3 | > 40100 | > 10000 |
| COc1ccc(=O)n(-c2ccc(N[C@H]3CC[C@H](Nc4ncc(C(=O)NC5COC5)nn4)C3)nc2)c1 [Example 154, 3-(((1S,3S)-3-((5-Methoxy-2-oxo-2H-[1,3′-bipyridin]-6′-yl)amino)cyclopentyl)amino)-N-(oxetan-3-yl)-1,2,4-triazine-6-carboxamide] | 200 | 14 | > 40100 | 3900 |
| Cc1cccn(-c2ccc(N[C@H]3CC[C@H](Nc4ncc(C(=O)NC5COC5)nn4)C3)nc2)c1=O [Example 155, 3-(((1S,3S)-3-((3-Methyl-2-oxo-2H-[1,3′-bipyridin]-6′-yl)amino)cyclopentyl)amino)-N-(oxetan-3-yl)-1,2,4-triazine-6-carboxamide] | 100 | 2.7 | > 40100 | > 10000 |
| Cc1ccc(=O)n(-c2ccc(N[C@H]3CC[C@H](Nc4ncc(C(=O)NC5COC5)nn4)C3)nc2)c1 [Example 156, 3-(((1S,3S)-3-((5-Methyl-2-oxo-2H-[1,3′-bipyridin]-6′-yl)amino)cyclopentyl)amino)-N-(oxetan-3-yl)-1,2,4-triazine-6-carboxamide] | 100 | 14 | > 40100 | > 10000 |
| O=C(NC1COC1)c1cnc(N[C@H]2CC[C@H](Nc3ccc(-n4cccc(Cl)c4=O)cn3)C2)nn1 [Example 157, 3-(((1S,3S)-3-((3-Chloro-2-oxo-2H-[1,3′-bipyridin]-6′-yl)amino)cyclopentyl)amino)-N-(oxetan-3-yl)-1,2,4-triazine-6-carboxamide] | 100 | 2.1 | > 40100 | 7780 |
| O=C(NC1COC1)c1cnc(N[C@H]2CC[C@H](Nc3ccc(-n4cc(Cl)ccc4=O)cn3)C2)nn1 [Example 158, 3-(((1S,3S)-3-((5-Chloro-2-oxo-2H-[1,3′-bipyridin]-6′-yl)amino)cyclopentyl)amino)-N-(oxetan-3-yl)-1,2,4-triazine-6-carboxamide] | 200 | 7.6 | > 40100 | > 10000 |
| N#Cc1cccn(-c2ccc(N[C@H]3CC[C@H](Nc4ncc(C(=O)NC5COC5)nn4)C3)nc2)c1=O [Example 159, 3-(((1S,3S)-3-((3-Cyano-2-oxo-2H-[1,3′-bipyridin]-6′-yl)amino)cyclopentyl)amino)-N-(oxetan-3-yl)-1,2,4-triazine-6-carboxamide] | 100 | 4.1 | > 40100 | > 10000 |
| O=C(NC1COC1)c1cnc(N[C@H]2CC[C@H](Nc3ccc(-n4cccc(OC(F)(F)F)c4=O)cn3)C2)nn1 [Example 160, N-(Oxetan-3-yl)-3-(((1S,3S)-3-((2-oxo-3-(trifluoromethoxy)-2H-[1,3′-bipyridin]-6′-yl)amino)cyclopentyl)amino)-1,2,4-triazine-6-carboxamide] | 200 | 6.9 | > 40100 | > 10000 |
